Reference: patent publication US20230024304A1, “A MULTICOMPONENT COMPOSITION COMPRISING A COLLAGEN, RESVERATROL AND ASTAXANTHIN AND THE USE THEREOF FOR THE TREATMENT OF TENDINOPATHIES” (KOLINPHARMA S.P.A., priority 2019, published 2023)

Legend:
primary human tenocytes = assay: MTT cytotoxicity test on healthy tenocytes (individual substances and their combination); format: cell-based; details: 24 hours
Protocol: The model is based on the use of primary human tenocytes, obtained through isolation from Achilles tendon, purchased from Zen-Bio (TEN-F), cultured and used according to the supplier's instructions. […] Preliminary cytotoxicity studies (i.e. MTT test (3-(4,5-dimethylthiazol-2-yl)-2,5-diphenyltetrazolium bromide) and the subsequent statistical analysis) were conducted on healthy tenocytes treated with the individual substances in order to identify the doses to be used for subsequent experiments, as well as the doses to be mixed to analyse synergism. Cells were seeded in 48 well multiwells, at a density of 6000 cells/well. After 48 ore, they were treated with different concentrations of vitamin C (from 0.88 μg/mL to 352 μg/mL), collagen peptides (from 100 μg/mL to 3000 μg/mL), astaxanthin (from 1 μg/mL to 1000 μg/mL) or resveratrol (from 0.1 μg/mL to 100 μg/mL) for 24 hours. The range of concentrations selected for each substance was determined based on the data reported in literature. The MTT test was conducted at the end of the treatment. […] The formazan deposits in the cells were then solubilised with isopropanol, obtaining a homogeneous solution whose absorbance can thus be measured at the spectrophotometer (absorbance at 510 nm). […]

NF-kB and PI-3K = details: human tenocytes; dose and time-dependent manner; cited from earlier work

Row | SMILES | effect on cell viability (MTT test) (primary human tenocytes; resveratrol 50 and 100 μg/ml) | IL-1β-induced activation of NF-kB and PI-3K (NF-kB and PI-3K) | toxicity / cell viability (MTT test) (primary human tenocytes; at the tested doses (collagen 100-3000 μg/mL, astaxanthin 1-1000 μg/mL), results not reported in detail)
1 | Oc1ccc(/C=C/c2cc(O)cc(O)c2)cc1 [resveratrol, 5-[(E)-2-(4-hydroxyphenyl)ethenyl]benzene-1,3-diol] | negative effect on cell viability | capable of suppressing IL-1β-induced activation of NF-kB and PI-3K | –
2 | CC1=C(/C=C/C(C)=C/C=C/C(C)=C/C=C/C=C(C)/C=C/C=C(C)/C=C/C2=C(C)C(=O)[C@@H](O)CC2(C)C)C(C)(C)C[C@H](O)C1=O [astaxanthin] | – | – | devoid of toxicity
